Laboratory results as given in the supplement of paper PMC10307832.

What was measured:
Experiment in all cases: relative viability (nuclei count vs DMSO), 5 days (fraction); higher = more cells survive
VX-11e + Trametinib = compound: CC1=CN=C(N=C1C2=CNC(=C2)C(=O)N[C@H](CO)C3=CC(=CC=C3)Cl)NC4=C(C=C(C=C4)F)Cl [VX-11e] + CC(=O)Nc1cccc(-n2c(=O)n(C3CC3)c(=O)c3c(Nc4ccc(I)cc4F)n(C)c(=O)c(C)c32)c1 [Trametinib] (partner 0.02 µM)
Summary of the method: (§1)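 Five library-drug doses in √10 steps were combined with a fixed anchor-drug dose, or a single drug was given alone, by pin tool to lung cancer cell lines in 1536-well plates the day after seeding. Nuclei were stained and counted after 5 days. Relative viability is the nuclei count in treated wells over that in vehicle wells, taken as the median of duplicate plates.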

VX-11e + Lapatinib = compound: CC1=CN=C(N=C1C2=CNC(=C2)C(=O)N[C@H](CO)C3=CC(=CC=C3)Cl)NC4=C(C=C(C=C4)F)Cl [VX-11e] + CS(=O)(=O)CCNCc1ccc(-c2ccc3ncnc(Nc4ccc(OCc5cccc(F)c5)c(Cl)c4)c3c2)o1 [Lapatinib] (partner 2 µM)
Summary of the method: as §1

VX-11e + Phenformin = compound: CC1=CN=C(N=C1C2=CNC(=C2)C(=O)N[C@H](CO)C3=CC(=CC=C3)Cl)NC4=C(C=C(C=C4)F)Cl [VX-11e] + N=C(N)NC(=N)NCCc1ccccc1 [Phenformin] (partner 250 µM)
Summary of the method: as §1

VX-11e + Olaparib = compound: CC1=CN=C(N=C1C2=CNC(=C2)C(=O)N[C@H](CO)C3=CC(=CC=C3)Cl)NC4=C(C=C(C=C4)F)Cl [VX-11e] + O=C(c1cc(Cc2n[nH]c(=O)c3ccccc23)ccc1F)N1CCN(C(=O)C2CC2)CC1 [Olaparib] (partner 8 µM)
Summary of the method: as §1

Cell Line | relative viability (VX-11e + Trametinib; first compound 0.04 µM) | relative viability (VX-11e + Trametinib; first compound 0.1265 µM) | relative viability (VX-11e + Trametinib; first compound 0.4 µM) | relative viability (VX-11e + Trametinib; first compound 1.265 µM) | relative viability (VX-11e + Trametinib; first compound 4 µM) | relative viability (VX-11e + Lapatinib; first compound 0.04 µM) | relative viability (VX-11e + Lapatinib; first compound 0.1265 µM) | relative viability (VX-11e + Lapatinib; first compound 0.4 µM) | relative viability (VX-11e + Lapatinib; first compound 1.265 µM) | relative viability (VX-11e + Lapatinib; first compound 4 µM) | relative viability (VX-11e + Phenformin; first compound 0.04 µM) | relative viability (VX-11e + Phenformin; first compound 0.1265 µM) | relative viability (VX-11e + Phenformin; first compound 0.4 µM) | relative viability (VX-11e + Phenformin; first compound 1.265 µM) | relative viability (VX-11e + Phenformin; first compound 4 µM) | relative viability (VX-11e + Olaparib; first compound 0.04 µM) | relative viability (VX-11e + Olaparib; first compound 0.1265 µM) | relative viability (VX-11e + Olaparib; first compound 0.4 µM) | relative viability (VX-11e + Olaparib; first compound 1.265 µM) | relative viability (VX-11e + Olaparib; first compound 4 µM)
HCC-827 | 0.555 | 0.568 | 0.454 | 0.549 | 0.274 | 0.191 | 0.229 | 0.206 | 0.205 | 0.207 | 0.409 | 0.413 | 0.369 | 0.479 | 0.375 | 0.556 | 0.609 | 0.724 | 0.768 | 0.516
NCI-H2228 | 0.518 | 0.466 | 0.0868 | 0.273 | 0.128 | 1.23 | 1.17 | 0.158 | 0.691 | 0.309 | 0.352 | 0.376 |  | 0.151 | 0.135 | 0.681 | 0.631 | 0.362 | 0.417 | 0.21
SW 1573 |  | 0.567 | 0.498 | 0.401 | 0.328 | 1.11 | 0.979 | 1.07 | 0.891 | 0.472 | 0.39 | 0.346 | 0.289 | 0.287 | 0.154 | 0.551 | 0.472 | 0.453 | 0.398 | 0.23
NCI-H2342 |  | 0.741 | 0.765 | 0.858 | 0.823 |  |  |  |  |  | 0.438 | 0.614 | 0.534 | 0.782 | 0.583 |  | 0.476 | 0.414 | 0.471 | 0.367
A-427 | 0.73 | 0.657 | 0.708 | 0.694 | 0.379 | 0.966 | 0.942 | 1.03 | 1.05 | 0.584 | 0.343 | 0.213 | 0.263 | 0.264 | 0.158 | 0.778 | 0.778 | 0.816 | 0.7 | 0.509
HARA | 0.589 | 0.636 | 0.64 | 0.209 | 0.244 | 0.673 | 0.653 | 0.79 | 0.666 | 0.374 | 0.453 | 0.431 | 0.414 | 0.399 | 0.314 | 0.893 | 0.705 | 0.939 | 0.295 | 0.525
HCC-78 | 0.827 | 0.651 | 0.632 | 0.559 | 0.387 | 1.37 | 0.884 | 0.944 | 0.384 | 0.526 |  | 0.75 | 0.857 | 0.672 | 0.738 | 0.852 | 0.639 | 0.834 | 0.963 | 0.754
NCI-H1755 | 0.751 | 0.755 | 0.78 | 0.778 | 0.612 | 1.05 | 0.97 | 0.833 | 0.93 | 0.771 | 0.694 | 0.542 | 0.248 | 0.594 | 0.51 | 0.903 | 0.853 | 0.874 | 0.942 | 0.747
NCI-H2405 | 0.716 | 0.582 | 0.271 | 0.649 | 0.283 | 1.07 | 1.01 |  | 1.05 | 0.349 | 0.393 | 0.403 | 0.233 | 0.321 | 0.169 | 0.961 | 0.814 | 0.333 | 0.873 | 0.379
ABC-1 |  |  |  |  |  | 1.03 | 1.06 | 0.899 | 1.22 | 1.53 | 0.205 | 0.277 | 0.224 | 0.243 | 0.281 | 1.22 |  | 0.667 | 0.771 | 0.926
Calu-6 |  |  |  |  |  | 1.07 | 1.03 | 1.05 | 0.364 | 0.226 |  |  |  |  |  | 0.672 | 0.579 | 0.562 | 0.31 | 0.108
PC-3 [JPC-3] | 0.671 | 0.653 | 0.59 | 0.572 | 0.527 | 0.384 | 0.485 | 0.436 | 0.453 | 0.445 | 0.436 | 0.476 | 0.486 | 0.489 | 0.414 | 1.23 | 1.09 | 1.09 | 1.19 | 0.901
NCI-H2023 | 0.601 | 0.495 | 0.391 | 0.292 | 0.171 | 0.72 | 0.874 | 0.1 | 0.387 | 0.303 | 0.393 | 0.404 | 0.291 | 0.322 | 0.191 | 0.541 | 0.45 | 0.507 | 0.475 | 0.346
NCI-H1563 |  |  |  |  |  | 0.938 | 0.795 | 0.529 | 0.854 | 0.864 | 0.647 | 0.607 | 0.549 | 0.713 | 0.806 |  |  |  |  | 
EBC-1 |  |  |  |  |  | 0.207 | 0.236 | 0.19 | 0.235 | 0.177 |  |  |  |  |  | 0.749 | 0.72 | 0.707 | 0.66 | 0.192
ChaGo-K-1 | 0.928 | 0.909 | 0.842 | 0.881 | 0.869 |  |  |  |  |  | 0.435 | 0.478 | 0.382 | 0.472 | 0.407 | 0.451 | 0.473 | 0.416 | 0.43 | 0.378
A549 |  |  |  |  |  | 0.898 | 0.903 | 0.832 | 0.211 | 0.135 | 0.151 | 0.155 | 0.0307 | 0.279 | 0.0557 | 0.237 | 0.246 | 0.0406 | 0.184 | 0.0866
SW 900 | 0.826 | 0.761 |  | 0.483 | 0.605 |  |  |  |  |  | 0.504 | 0.456 | 0.216 | 0.213 | 0.318 | 0.879 | 0.888 |  | 0.836 | 0.581
NCI-H441 | 0.448 | 0.485 |  | 0.278 | 0.325 |  |  |  |  |  | 0.858 | 0.837 |  | 0.732 | 0.49 | 0.553 | 0.572 |  | 0.702 | 0.591
NCI-H1299 |  |  |  |  |  | 0.984 | 0.953 | 1.1 | 0.918 | 0.559 |  |  |  |  |  | 1 | 0.967 | 0.968 | 0.92 | 0.519
